Test results from ChEMBL document CHEMBL5614418, “Discovery of novel dihydropyrrolidone-thiadiazole compound crosstalk between the YycG/F two-component regulatory pathway and cell membrane homeostasis to combat methicillin-resistant Staphylococcus aureus” (Eur J Med Chem, 2024).
≈ marks a conversion by molar mass, not a printed value. Calls of active or inactive are those of the source. The calls are words filed in the database; no cut-off is given here.

Columns and labels:
Enterococcus faecium = assay: Antibacterial activity against Enterococcus faecium EFM64 by broth microdilution method; format: functional
[1] = system: Staphylococcus epidermidis; assay: Antibacterial activity against Staphylococcus epidermidis SE1457 by broth microdilution method; format: functional
[2] = Hemolytic activity against human erythrocytes measured after 1 hr; format: toxicity, cell-based, Erythrocyte
[3] = Cytotoxicity against human LX2 cells incubated for 24 hrs by CCK8 assay; format: toxicity, cell-based; settings: LX-2 cells
Enterococcus faecalis = assay: Antibacterial activity against Enterococcus faecalis OG1RF by broth microdilution method; format: functional
Staphylococcus aureus [4] = assay: Antibacterial activity against methicillin sensitive Staphylococcus aureus SA113 by broth microdilution method; format: functional
[5] = target: T1, Sensor protein kinase WalK (Staphylococcus aureus, UniProt Q9RDT3); assay: Inhibition of Staphylococcus aureus YycG expressed in Escherichia coli preincubated for 30 mins followed by ATP addition and measured after 30 mins by kinase-Glo luminescent assay
T1 sequence (Q9RDT3 whole entry): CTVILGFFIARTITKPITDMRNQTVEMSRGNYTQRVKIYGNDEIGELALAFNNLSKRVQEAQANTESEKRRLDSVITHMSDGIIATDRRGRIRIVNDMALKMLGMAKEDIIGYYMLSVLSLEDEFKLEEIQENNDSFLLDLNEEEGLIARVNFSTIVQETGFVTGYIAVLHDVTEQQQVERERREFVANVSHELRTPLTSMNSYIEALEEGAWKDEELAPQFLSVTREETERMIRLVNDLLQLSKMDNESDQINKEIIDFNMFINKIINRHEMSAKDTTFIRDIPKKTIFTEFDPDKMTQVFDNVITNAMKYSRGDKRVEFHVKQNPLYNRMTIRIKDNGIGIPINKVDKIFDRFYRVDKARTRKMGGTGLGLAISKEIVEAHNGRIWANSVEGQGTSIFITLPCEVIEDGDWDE

Staphylococcus aureus [6] = assay: Antibacterial activity against methicillin resistant Staphylococcus aureus USA300 infected in BALB/c mouse pneumonia model assessed as log reduction in lung bacterial count at 20 mg/kg, ip administered every 12 hrs for 3 times and measured after 48 hrs; format: functional
Staphylococcus aureus [7] = assay: Antibacterial activity against methicillin resistant Staphylococcus aureus USA300 infected in BALB/c mouse pneumonia model assessed as increase in mouse survival rate at 20 mg/kg, ip administered every 12 hrs for 3 times and measured after 48 hrs; format: functional, organism-based
Staphylococcus aureus [8] = assay: Induction of resistance development in methicillin sensitive Staphylococcus aureus SA113 assessed as fold increase in MIC at 1/2 MIC incubated for 16 hrs after 20 serial passages; format: functional
[9] = system: Staphylococcus epidermidis; assay: Induction of resistance development in Staphylococcus epidermidis SE1457 assessed as fold increase in MIC at 1/2 MIC incubated for 16 hrs after 20 serial passages; format: functional
Staphylococcus aureus [10] = assay: Induction of matured biofilm eradication in methicillin resistant Staphylococcus aureus YUSA145 assessed as reduction in bacterial survival in biofilm at 8 times MIC incubated for 48 hrs by SYTO 9 staining based confocal fluorescence microscopic analysis; format: functional
Staphylococcus aureus [11] = assay: Bactericidal activity against Staphylococcus aureus USA300 assessed as planktonic cells killing by measuring log reduction in bacterial count at 8 times MIC measured after 24 hrs; format: functional, organism-based
Staphylococcus aureus [12] = assay: Antibacterial activity against methicillin resistant Staphylococcus aureus USA300 by broth microdilution method; format: functional
[13] = system: Staphylococcus epidermidis; assay: Bactericidal activity against Staphylococcus epidermidis SE1457 assessed as planktonic cells killing by measuring log reduction in bacterial count at 8 times MIC measured after 24 hrs; format: functional, organism-based
[14] = system: Staphylococcus epidermidis; assay: Induction of matured biofilm eradication in Staphylococcus epidermidis SE1457 assessed as reduction in bacterial survival in biofilm at 8 times MIC incubated for 48 hrs by SYTO 9 staining based confocal fluorescence microscopic analysis; format: functional
Staphylococcus aureus [15] = assay: Antibacterial activity against methicillin resistant Staphylococcus aureus USA300 infected in BALB/c mouse wound model assessed as log reduction in wound bacterial load at 10 mg/kg, ip administered every 12 hrs for 3 times and measured after 48 hrs; format: functional
[16] = system: Staphylococcus epidermidis; assay: Antibacterial activity against methicillin resistant Staphylococcus epidermidis SE1457 infected in BALB/c mouse wound model assessed as log reduction in wound bacterial load at 10 mg/kg, ip administered every 12 hrs for 3 times and measured after 48 hrs; format: functional

Compound	MIC (Enterococcus faecium)	MIC [1]	HC50 at 1 h [2]	CC50 at 24 h [3]	MIC (Enterococcus faecalis)	MIC (Staphylococcus aureus [4])	other results
O=C(C1=C(O)C(=O)N(c2nnc(SCc3ccccc3)s2)C1c1cccc(O)c1O)c1cc2ccccc2o1 (stereo unspecified)	25 µM (≈ 13.9 µg/mL)	50 µM (≈ 27.9 µg/mL)	> 200 µM	> 100 µM	25 µM (≈ 13.9 µg/mL)	50 µM (≈ 27.9 µg/mL)	
COc1cc(C2C(C(=O)c3cc4ccccc4o3)=C(O)C(=O)N2c2nnc(SCc3ccccc3Cl)s2)ccc1O (stereo unspecified)	> 100 µM	25 µM (≈ 15.2 µg/mL)	> 200 µM	> 100 µM	> 100 µM	> 100 µM	IC50 [5]: 46.1 µM
O=C(C1=C(O)C(=O)N(c2nnc(SCc3ccc(Cl)cc3)s2)C1c1ccccc1O)c1cc2ccccc2o1 (stereo unspecified)	50 µM (≈ 28.8 µg/mL)	25 µM (≈ 14.4 µg/mL)	> 200 µM	> 100 µM	50 µM (≈ 28.8 µg/mL)	25 µM (≈ 14.4 µg/mL)	
O=C(C1=C(O)C(=O)N(c2nnc(SCc3ccccc3Cl)s2)C1c1ccc(O)cc1)c1cc2ccccc2o1 (stereo unspecified)	> 100 µM	50 µM (≈ 28.8 µg/mL)	> 200 µM	> 100 µM	> 100 µM	100 µM (≈ 57.6 µg/mL)	
O=C(C1=C(O)C(=O)N(c2nnc(SCc3ccccc3)s2)C1c1ccc(O)cc1O)c1cc2ccccc2o1 (stereo unspecified)	> 100 µM	> 100 µM	> 200 µM	> 100 µM	> 100 µM	> 100 µM	
CN[C@H](CC(C)C)C(=O)N[C@H]1C(=O)N[C@@H](CC(N)=O)C(=O)N[C@H]2C(=O)N[C@H]3C(=O)N[C@H](C(=O)N[C@H](C(=O)O)c4cc(O)cc(O)c4-c4cc3ccc4O)[C@H](O)c3ccc(c(Cl)c3)Oc3cc2cc(c3O[C@@H]2O[C@H](CO)[C@@H](O)[C@H](O)[C@H]2O[C@H]2C[C@](C)(N)[C@H](O)[C@H](C)O2)Oc2ccc(cc2Cl)[C@H]1O [VANCOMYCIN]							log(activity) (Staphylococcus aureus [6]): 2; Activity (Staphylococcus aureus [7]): Active
O=C(C1=C(O)C(=O)N(c2nnc(SCc3ccccc3)s2)C1c1ccc(O)c(O)c1)c1cc2ccccc2o1 (stereo unspecified)	> 100 µM	> 100 µM	> 200 µM	> 100 µM	> 100 µM	> 100 µM	
O=C(C1=C(O)C(=O)N(c2nnc(SCc3ccccc3Cl)s2)C1c1ccccc1)c1cc2ccccc2o1 (stereo unspecified)	> 100 µM	> 100 µM	> 200 µM	> 100 µM	> 100 µM	> 100 µM	
COC(=O)COc1ccc(C2C(C(=O)c3cc4ccccc4o3)=C(O)C(=O)N2c2nnc(SCc3ccccc3Cl)s2)cc1 (stereo unspecified)	> 100 µM	> 100 µM	> 200 µM	> 100 µM	> 100 µM	> 100 µM	
CC(=O)NC[C@H]1CN(c2ccc(N3CCOCC3)c(F)c2)C(=O)O1							fold change (FC) (Staphylococcus aureus [8]): 4; fold change (FC) [9]: 4
COc1cc(C2C(C(=O)c3cc4ccccc4o3)=C(O)C(=O)N2c2nnc(SCc3ccccc3)s2)ccc1O (stereo unspecified)	> 100 µM	> 100 µM	> 200 µM	> 100 µM	> 100 µM	> 100 µM	
O=C(C1=C(O)C(=O)N(c2nnc(SCc3ccccc3)s2)C1c1ccccc1O)c1ccc([N+](=O)[O-])cc1 (stereo unspecified)	> 100 µM	> 100 µM	> 200 µM	> 100 µM	> 100 µM	> 100 µM	
O=C(C1=C(O)C(=O)N(c2nnc(SCc3ccccc3)s2)C1c1ccccc1O)c1ccc(F)cc1 (stereo unspecified)	> 100 µM	> 100 µM	> 200 µM	> 100 µM	> 100 µM	> 100 µM	
COc1ccc(C(=O)C2=C(O)C(=O)N(c3nnc(SCc4ccccc4)s3)C2c2ccccc2O)cc1 (stereo unspecified)	> 100 µM	> 100 µM	> 200 µM	> 100 µM	> 100 µM	> 100 µM	
O=C(C1=C(O)C(=O)N(c2nnc(SCc3ccccc3Cl)s2)C1c1ccc(O)c(Br)c1)c1cc2ccccc2o1 (stereo unspecified)	> 100 µM	> 100 µM	> 200 µM	> 100 µM	> 100 µM	> 100 µM	
CCCCCCCCCC(=O)N[C@@H](Cc1c[nH]c2ccccc12)C(=O)N[C@H](CC(N)=O)C(=O)N[C@@H](CC(=O)O)C(=O)N[C@@H]1C(=O)NCC(=O)N[C@@H](CCCN)C(=O)N[C@@H](CC(=O)O)C(=O)N[C@H](C)C(=O)N[C@@H](CC(=O)O)C(=O)NCC(=O)N[C@H](CO)C(=O)N[C@@H]([C@H](C)CC(=O)O)C(=O)N[C@@H](CC(=O)c2ccccc2N)C(=O)O[C@@H]1C	2 µM (≈ 3.24 µg/mL)	2 µM (≈ 3.24 µg/mL)			2 µM (≈ 3.24 µg/mL)	2 µM (≈ 3.24 µg/mL)	Activity (Staphylococcus aureus [10]): <50%; Activity (Staphylococcus aureus [11]): inactive; MIC (Staphylococcus aureus [12]): 2 µg/mL (≈ 1.23 µM); Activity [13]: inactive; Activity [14]: <50%; log(activity) (Staphylococcus aureus [15]): 1; log(activity) [16]: 1
O=C(C1=C(O)C(=O)N(c2nnc(SCc3ccccc3)s2)C1c1ccccc1O)c1cc2ccccc2s1 (stereo unspecified)	> 100 µM	> 100 µM	> 200 µM	> 100 µM	> 100 µM	> 100 µM	
COc1ccc(O)c(C2C(C(=O)c3cc4ccccc4o3)=C(O)C(=O)N2c2nnc(SCc3ccccc3Cl)s2)c1 (stereo unspecified)	100 µM (≈ 60.6 µg/mL)	50 µM (≈ 30.3 µg/mL)	> 200 µM	> 100 µM	100 µM (≈ 60.6 µg/mL)	50 µM (≈ 30.3 µg/mL)	
O=C(O)COc1ccc(C2C(C(=O)c3cc4ccccc4o3)=C(O)C(=O)N2c2nnc(SCc3ccccc3Cl)s2)cc1 (stereo unspecified)	> 100 µM	> 100 µM	> 200 µM	> 100 µM	> 100 µM	> 100 µM	
O=C(C1=C(O)C(=O)N(c2nnc(SCc3ccccc3Cl)s2)C1c1cccc(O)c1)c1cc2ccccc2o1 (stereo unspecified)	> 100 µM	> 100 µM	> 200 µM	> 100 µM	> 100 µM	> 100 µM	
O=C(C1=C(O)C(=O)N(c2nnc(SCc3cccc(Cl)c3)s2)C1c1ccccc1O)c1cc2ccccc2o1 (stereo unspecified)	25 µM (≈ 14.4 µg/mL)	25 µM (≈ 14.4 µg/mL)	> 200 µM	> 100 µM	25 µM (≈ 14.4 µg/mL)	50 µM (≈ 28.8 µg/mL)	
O=C(C1=C(O)C(=O)N(c2nnc(SCc3ccccc3)s2)C1c1ccccc1O)c1ccc(C(F)(F)F)cc1 (stereo unspecified)	> 100 µM	> 100 µM	> 200 µM	> 100 µM	> 100 µM	> 100 µM	
O=C(C1=C(O)C(=O)N(c2nnc(SCc3ccccc3Cl)s2)C1c1ccccc1O)c1cc2ccccc2s1 (stereo unspecified)	> 100 µM	> 100 µM	> 200 µM	> 100 µM	> 100 µM	> 100 µM	
